Tested on: 362531-283-R-J2-PDC complex spheroid viability
Assay: Anticancer human tumor 362531-283-R-J2-PDC patient-derived colon adenocarcinoma cell line growth inhibition [RAS]
Conditions: for viability, T/C: stronger effect = lower value
In short: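 Agents were tested in combination matrices in half-log decrements from a top concentration at or near clinical Cmax (10 microM if undetermined). Targets were multi-cell spheroids of tumour lines plus HUVEC and MSC stromal cells.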
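Also: spheroids exposed to the agents for 7 days before readout.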
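For viability, T/C in this document: luminescence viability as percent of DMSO vehicle control wells.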

## CC1(O)CCCC1n1c(=O)c(C(F)F)cc2cnc(NC3CCN(S(C)(=O)=O)CC3)nc21 (configuration not stated) + C#Cc1c(F)ccc2cc(O)cc(-c3ncc4c(N5CC6CCC(C5)N6)nc(OCC56CCCN5CC(F)C6)nc4c3F)c12
Curve of first compound, second compound 0.0316 µM
  IC50: > 10000 nM
Curve of first compound, second compound 0.1 µM
  IC50: > 10000 nM
Curve of first compound, second compound 0.316 µM
  IC50: 3080 nM
Curve of first compound, second compound 1 µM
  IC50: 3430 nM
Curve of first compound, second compound 3.16 µM
  IC50: 1290 nM
Curve of first compound, second compound 10 µM
  IC50: < 31.6 nM
Second compound 0.0316 µM, first compound 0.0316 µM
  viability, T/C: 92.6%
Second compound 0.0316 µM, first compound 0.1 µM
  viability, T/C: 91.8%
Second compound 0.0316 µM, first compound 0.316 µM
  viability, T/C: 71.8%
Second compound 0.0316 µM, first compound 1 µM
  viability, T/C: 71%
Second compound 0.0316 µM, first compound 3.16 µM
  viability, T/C: 62.3%
Second compound 0.0316 µM, first compound 10 µM
  viability, T/C: 81%
Second compound 0.1 µM, first compound 0.0316 µM
  viability, T/C: 95.4%
Second compound 0.1 µM, first compound 0.1 µM
  viability, T/C: 92.5%
Second compound 0.1 µM, first compound 0.316 µM
  viability, T/C: 80.9%
Second compound 0.1 µM, first compound 1 µM
  viability, T/C: 73.4%
Second compound 0.1 µM, first compound 3.16 µM
  viability, T/C: 68.7%
Second compound 0.1 µM, first compound 10 µM
  viability, T/C: 73.2%
Second compound 0.316 µM, first compound 0.0316 µM
  viability, T/C: 82.7%
Second compound 0.316 µM, first compound 0.1 µM
  viability, T/C: 89.1%
Second compound 0.316 µM, first compound 0.316 µM
  viability, T/C: 74.6%
Second compound 0.316 µM, first compound 1 µM
  viability, T/C: 66.4%
Second compound 0.316 µM, first compound 3.16 µM
  viability, T/C: 49.8%
Second compound 0.316 µM, first compound 10 µM
  viability, T/C: 37%
Second compound 1 µM, first compound 0.0316 µM
  viability, T/C: 82.8%
Second compound 1 µM, first compound 0.1 µM
  viability, T/C: 80.5%
Second compound 1 µM, first compound 0.316 µM
  viability, T/C: 67.7%
Second compound 1 µM, first compound 1 µM
  viability, T/C: 69.3%
Second compound 1 µM, first compound 3.16 µM
  viability, T/C: 53.9%
Second compound 1 µM, first compound 10 µM
  viability, T/C: 20.4%
Second compound 3.16 µM, first compound 0.0316 µM
  viability, T/C: 59.2%
Second compound 3.16 µM, first compound 0.1 µM
  viability, T/C: 59.8%
Second compound 3.16 µM, first compound 0.316 µM
  viability, T/C: 61.4%
Second compound 3.16 µM, first compound 1 µM
  viability, T/C: 54.7%
Second compound 3.16 µM, first compound 3.16 µM
  viability, T/C: 32%
Second compound 3.16 µM, first compound 10 µM
  viability, T/C: 7.49%
Second compound 10 µM, first compound 0.0316 µM
  viability, T/C: 45.1%
Second compound 10 µM, first compound 0.1 µM
  viability, T/C: 50.7%
Second compound 10 µM, first compound 0.316 µM
  viability, T/C: 29.9%
Second compound 10 µM, first compound 1 µM
  viability, T/C: 29.7%
Second compound 10 µM, first compound 3.16 µM
  viability, T/C: 24.7%
Second compound 10 µM, first compound 10 µM
  viability, T/C: 5.91%

## CC(Nc1ccc2c(c1)OCCn1cc(N3C(=O)OCC3C(F)F)nc1-2)C(N)=O (configuration not stated)
Compound 0.0316 µM
  viability, T/C: 96.9% [middle of 4 runs]
Compound 0.1 µM
  viability, T/C: 97.1% [middle of 4 runs]
Compound 1 µM
  viability, T/C: 63.1% [middle of 4 runs]
Compound 3.16 µM
  viability, T/C: 43.1% [middle of 4 runs]
Compound 10 µM
  viability, T/C: 32.6% [middle of 4 runs]
Curve of compound
  IC50: 1.77 µM [middle of 4 runs]

## CC(Nc1ccc2c(c1)OCCn1cc(N3C(=O)OCC3C(F)F)nc1-2)C(N)=O (configuration not stated) + CCn1c(-c2cccnc2C(C)OC)c2c3cc(ccc31)N1CCOC(CC(NC(=O)C(C(C)C)N(C)C(=O)C3(F)CCN(C(=O)C#CC(C)(C)N(C)C)CC3)C(=O)N3CCCC(N3)C(=O)OCC(C)(C)C2)C1
Curve of first compound, second compound 0.000949 µM
  IC50: 1530 nM
Curve of first compound, second compound 0.003 µM
  IC50: 1290 nM
Curve of first compound, second compound 0.00949 µM
  IC50: 1680 nM
Curve of first compound, second compound 0.03 µM
  IC50: 2090 nM
Curve of first compound, second compound 0.0949 µM
  IC50: 1650 nM
Curve of first compound, second compound 0.3 µM
  IC50: 1510 nM
Second compound 0.000949 µM, first compound 0.0316 µM
  viability, T/C: 103%
Second compound 0.000949 µM, first compound 0.1 µM
  viability, T/C: 107%
Second compound 0.000949 µM, first compound 0.316 µM
  viability, T/C: 92.1%
Second compound 0.000949 µM, first compound 1 µM
  viability, T/C: 59.6%
Second compound 0.000949 µM, first compound 3.16 µM
  viability, T/C: 34.2%
Second compound 0.000949 µM, first compound 10 µM
  viability, T/C: 29%
Second compound 0.003 µM, first compound 0.0316 µM
  viability, T/C: 106%
Second compound 0.003 µM, first compound 0.1 µM
  viability, T/C: 95.5%
Second compound 0.003 µM, first compound 0.316 µM
  viability, T/C: 92.9%
Second compound 0.003 µM, first compound 1 µM
  viability, T/C: 52.4%
Second compound 0.003 µM, first compound 3.16 µM
  viability, T/C: 36.8%
Second compound 0.003 µM, first compound 10 µM
  viability, T/C: 24.4%
Second compound 0.00949 µM, first compound 0.0316 µM
  viability, T/C: 95.4%
Second compound 0.00949 µM, first compound 0.1 µM
  viability, T/C: 106%
Second compound 0.00949 µM, first compound 0.316 µM
  viability, T/C: 87.8%
Second compound 0.00949 µM, first compound 1 µM
  viability, T/C: 62.4%
Second compound 0.00949 µM, first compound 3.16 µM
  viability, T/C: 35.7%
Second compound 0.00949 µM, first compound 10 µM
  viability, T/C: 28.4%
Second compound 0.03 µM, first compound 0.0316 µM
  viability, T/C: 98.4%
Second compound 0.03 µM, first compound 0.1 µM
  viability, T/C: 96.5%
Second compound 0.03 µM, first compound 0.316 µM
  viability, T/C: 87.1%
Second compound 0.03 µM, first compound 1 µM
  viability, T/C: 65.3%
Second compound 0.03 µM, first compound 3.16 µM
  viability, T/C: 41.7%
Second compound 0.03 µM, first compound 10 µM
  viability, T/C: 24.9%
Second compound 0.0949 µM, first compound 0.0316 µM
  viability, T/C: 93.9%
Second compound 0.0949 µM, first compound 0.1 µM
  viability, T/C: 91.4%
Second compound 0.0949 µM, first compound 0.316 µM
  viability, T/C: 88.5%
Second compound 0.0949 µM, first compound 1 µM
  viability, T/C: 60.5%
Second compound 0.0949 µM, first compound 3.16 µM
  viability, T/C: 36.1%
Second compound 0.0949 µM, first compound 10 µM
  viability, T/C: 24.5%
Second compound 0.3 µM, first compound 0.0316 µM
  viability, T/C: 93.4%
Second compound 0.3 µM, first compound 0.1 µM
  viability, T/C: 85.5%
Second compound 0.3 µM, first compound 0.316 µM
  viability, T/C: 83%
Second compound 0.3 µM, first compound 1 µM
  viability, T/C: 56.9%
Second compound 0.3 µM, first compound 3.16 µM
  viability, T/C: 36.6%
Second compound 0.3 µM, first compound 10 µM
  viability, T/C: 28%

## CCn1c(-c2cccnc2C(C)OC)c2c3cc(ccc31)N1CCOC(CC(NC(=O)C(C(C)C)N(C)C(=O)C3(F)CCN(C(=O)C#CC(C)(C)N(C)C)CC3)C(=O)N3CCCC(N3)C(=O)OCC(C)(C)C2)C1 (configuration not stated)
Compound 0.000949 µM
  viability, T/C: 103% [middle of 8 runs]
Compound 0.003 µM
  viability, T/C: 102% [middle of 8 runs]
Compound 0.00949 µM
  viability, T/C: 107% [middle of 8 runs]
Compound 0.03 µM
  viability, T/C: 103% [middle of 8 runs]
Compound 0.0949 µM
  viability, T/C: 104% [middle of 8 runs]
Compound 0.3 µM
  viability, T/C: 100% [middle of 8 runs]
Compound alone, run of 07/09/2024
  IC50: > 300 nM

Source: PubChem BioAssay AID2060909 (Molecular Pharmacology Branch, DTP, NCI, 2025)
